Source: patent publication US12565504B2, “Spirocyclic O-glycoprotein-2-acetamido-2-deoxy-3-d-glucopyranosidase inhibitors” (BIOGEN MA INC., priority 2019, dated 2026)

Columns and labels:
P-gp (MDR1) = test: MDR1-MDCK Efflux Ratio Assay; format: in vitro ADME; details: dog, MDR1-MDCK cells, pH 7.4, read-out: MDR1-MDCK Efflux Ratio (B-A/A-B)
Procedure: MDR1-MDCK cell monolayers were grown to confluence on microporous polyester membranes in 96-well Corning insert plates. The permeability assay buffer was Hanks' Balanced Salt Solution containing 10 mM HEPES at pH of 7.4. Loperamide (1 μM) was used as a positive control P-gp substrate. Propranolol and Bestatin (1 μM) were used as high and low permeability comparators, respectively.
Test compounds or positive control P-gp substrate/permeability comprators were added to respective apical and basolateral chambers for bidirectional assessment of permeability. Receiver buffer (transport buffer supplemented with 1% bovine serum albumin) was added to respective receiver chambers. MDR1-MDCK cells were incubated with test compounds at 37° C. with 5% CO2 for 2 hr. Samples were collected from the donor chamber at both 0 and 120 minutes, and from the receiver chamber at 120 minutes. Test and control compound concentrations were determined using LC-MS/MS analysis. Each determination was performed in triplicate.

[1] = Rat Liver Microsome Stability Assay; details: rat liver microsomes 0.5 mg/mL, compound 1 μM; Qh 55 mL/minute/kg
Procedure: Aliquots (40 uL) at 0, 5, 10, 15, 25 and 40 minutes post NADPH addition (or compound addition for reactions in absence of NADPH) were transferred into individual 96-well plate wells containing 40 ng/ml of 8-cyclopently-1,3-dipropylxanthine (CPDPX, internal standard) in 160 uL acetonitrile:methanol (1:1 v/v).
The LC/MS/MS system consisted of an ultra high throughput RapidFire® 300 system (Agilent Technologies, Santa Clara, CA) coupled to a Triple Quad 5500 mass spectrometer (ABSciex, Foster City, CA). Sample load and wash were performed on a RapidFire® C4 cartridge using 0.1% formic acid in water as mobile phase A and sample elution using 0.1% formic acid in acetonitrile:methanol (1:1 v/v) as mobile phase B.
CLint, app (apparent intrinsic clearance) was calculated using the following equation for microsome stability.
[formula] • where “a” represents 45 grams of liver/kg of body weight for rat. • CLint,app (apparent intrinsic clearance) was calculated using the following equation for hepatocyte stability: • CLhep (hepatic clearance) was calculated using the following equation for microsomes
[formula] • using 55 mL/minute/kg as Qh (hepatic blood flow) for rat.

OGA (S400 O-GLCNAC) = OGA (S400 O-GLCNAC) (Homo sapiens (Human), UniProt O60502); test: Cellular OGA-Tau MSD Assay; format: cell-based; details: HEK-293T cells transfected with OGT and Tau-V5; Tau-S400-GlcNAc MSD readout
OGA (S400 O-GLCNAC), sequence (O60502 whole entry): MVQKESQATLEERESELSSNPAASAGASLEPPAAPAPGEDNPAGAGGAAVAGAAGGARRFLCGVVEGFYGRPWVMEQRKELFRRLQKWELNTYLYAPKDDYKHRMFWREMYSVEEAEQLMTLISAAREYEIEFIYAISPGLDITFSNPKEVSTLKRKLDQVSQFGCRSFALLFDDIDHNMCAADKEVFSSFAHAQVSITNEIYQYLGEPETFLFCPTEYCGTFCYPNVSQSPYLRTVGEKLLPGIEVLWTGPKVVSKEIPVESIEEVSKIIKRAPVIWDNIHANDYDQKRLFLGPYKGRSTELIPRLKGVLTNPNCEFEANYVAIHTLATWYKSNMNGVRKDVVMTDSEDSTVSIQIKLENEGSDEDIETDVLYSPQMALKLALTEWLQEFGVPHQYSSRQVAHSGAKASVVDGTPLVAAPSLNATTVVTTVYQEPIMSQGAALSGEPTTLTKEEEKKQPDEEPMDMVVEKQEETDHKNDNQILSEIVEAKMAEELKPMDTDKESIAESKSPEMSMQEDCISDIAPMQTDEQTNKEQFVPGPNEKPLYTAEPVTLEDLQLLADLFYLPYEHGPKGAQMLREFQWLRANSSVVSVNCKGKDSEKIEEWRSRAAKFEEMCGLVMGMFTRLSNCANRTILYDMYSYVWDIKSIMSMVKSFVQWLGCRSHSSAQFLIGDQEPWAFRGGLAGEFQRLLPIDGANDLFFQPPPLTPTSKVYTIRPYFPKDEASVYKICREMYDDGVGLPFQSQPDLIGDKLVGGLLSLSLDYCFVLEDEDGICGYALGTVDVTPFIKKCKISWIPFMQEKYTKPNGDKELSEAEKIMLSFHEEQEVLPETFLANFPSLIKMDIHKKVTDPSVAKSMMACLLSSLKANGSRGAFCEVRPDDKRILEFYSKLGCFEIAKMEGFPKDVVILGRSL
Procedure: HEK-293T cells were transfected with OGT and Tau-V5 plasmids using Lipofectamine and grown overnight. Next day, the cells were collected and re-plated at 1×10^5 cells per well in 96 well plates. Cells were incubated for 4 hr at 37° C., before compounds were added at 1 uM, with 3-fold dilutions in a 10-point titration. Cell plates were incubated with compounds overnight at 37° C. The next day media was removed from wells by gentle aspiration and 120 ul of 1× Cell Lysis buffer mixed with protease and phosphatase cocktail added to each well. A freeze thaw was performed at −80° C., then mixed before transferring 50 μl to MSD plates coated with V5-tag antibody to capture Tau. MSD Plates were incubated overnight at 4° C., on a plate shaker. The following day, plates were washed and incubated with Tau-S400-GlcNAc antibody for 2 hr and then developed with rabbit Sulfo-tag antibody. Final read out was carried out on an MSD 600 reader. The data was analyzed using Graph Pad or Genedata, the data was normalized and % activity versus log of compound concentration was plotted. The ICso values were obtained from a 4 parameter fit.

[2] = molecular target: Recombinant full length human OGA enzyme (Homo sapiens (Human), UniProt O60502); test: OGA Enzyme Inhibition Biochemical Assay; details: 1 nM OGA, 100 μM 4-MUGlcNAc, 90 minutes, pH 6.4
Recombinant full length human OGA enzyme, sequence (O60502 whole entry): as above
Procedure: Recombinant full length human OGA enzyme was purchased from Origene. 4-MUGlcNAc substrate was purchased from Sigma. All other reagents were purchased from Sigma or Fisher. Assay buffer consists of the McIlvaine buffer system, pH 6.4 (0.2M Na2HPO4 mixed with 0.1M citric acid) and 0.01% BSA. […] Reactions were incubated for 90 minutes at room temperature and quenched with 40 μl of 3M glycine, pH 10 and read on a Perkin Elmer Envision plate reader (Ex: 355 nm/Em: 460 nm). Compounds were tested with a 10-point dose-response starting from 20 μM with a 4-fold dilution. Data was fit using GraphPad Prism using a 4-parameter fit with variable slope.

SMILES | efflux ratio at 2 h (P-gp (MDR1)) | RLM % Qh (%) [1] | IC50 (OGA (S400 O-GLCNAC)) | IC50 [2]
CC(=O)Nc1nc(F)c(CN2CC3(Cc4nc(O)cnc4O3)C[C@@H]2C)s1 (stereo partly drawn) [Example 51, N-(4-fluoro-5-(((5′S)-2-hydroxy-5′-methyl-7H-spiro[furo[2,3-b]pyrazine-6,3′-pyrrolidin]-1′-yl)methyl)thiazol-2-yl)acetamide] | – | – | 59 nM | 91 nM
CC(=O)Nc1ncc(CN2CCCC3(CCc4ccccc43)C2)s1 (centres unmarked) [Example 53, N-(5-((2,3-Dihydrospiro[indene-1,3′-piperidin]-1′-yl)methyl)thiazol-2-yl)acetamide] | – | – | 532 nM | 73 nM
CC(=O)Nc1ncc(CN2CCCC3(C2)OCc2ccccc23)s1 (centres unmarked) [Example 55, N-(5-((3H-Spiro[isobenzofuran-1,3′-piperidin]-1′-yl)methyl)thiazol-2-yl)acetamide] | – | – | 250 nM | 24.5 nM
CC(=O)Nc1nc(F)c(CN2CCCC3(C2)OCc2ccccc23)s1 (centres unmarked) [Example 56, N-(5-((3H-Spiro[isobenzofuran-1,3′-piperidin]-1′-yl)methyl)-4-fluorothiazol-2-yl)acetamide] | – | – | 112 nM | 17 nM
CC(=O)Nc1ncc(CN2CC3(CCC2C)OCc2ccccc23)s1 (centres unmarked) [Example 60, N-(5-((6′-Methyl-3H-spiro[isobenzofuran-1,3′-piperidin]-1′-yl)methyl)thiazol-2-yl)acetamide] | – | – | > 1000 nM | 1700 nM
CC(=O)Nc1ncc(CN2CC3(C[C@@H]2C)OCc2cccnc23)s1 (stereo partly drawn) [Example 62, N-(5-(((5′S)-5′-Methyl-5H-spiro[furo[3,4-b]pyridine-7,3′-pyrrolidin]-1′-yl)methyl)thiazol-2-yl)acetamide] | – | – | 73 nM | 44 nM
CC(=O)Nc1ncc(CN2CCC3(C2)OCc2cnccc23)s1 (centres unmarked) [Example 66, N-(5-((3H-Spiro[furo[3,4-c]pyridine-1,3′-pyrrolidin]-1′-yl)methyl)thiazol-2-yl)acetamide] | – | – | 794 nM | 210 nM
CC(=O)Nc1nc(F)c(CN2CCC3(C2)OCc2cnccc23)s1 (centres unmarked) [Example 67, N-(5-((3H-Spiro[furo[3,4-c]pyridine-1,3′-pyrrolidin]-1′-yl)methyl)-4-fluorothiazol-2-yl)acetamide] | – | – | 1000 nM | 120 nM
CC(=O)Nc1ncc(CN2CC3(C[C@@H]2C)OCc2ncccc23)s1 (stereo partly drawn) [Example 80, N-(5-(((5′S)-5′-Methyl-7H-spiro[furo[3,4-b]pyridine-5,3′-pyrrolidin]-1′-yl)methyl)thiazol-2-yl)acetamide] | – | – | 15 nM | 49 nM
CC(=O)Nc1nc(F)c(CN2CCC[C@]3(C2)OCc2c3ccnc2Cl)s1 [Example 84-b, (S)—N-(5-((4-chloro-3H-spiro[furo[3,4-c]pyridine-1,3′-piperidin]-1′-yl)methyl)-4-fluorothiazol-2-yl)acetamide] | – | – | > 1000 nM | 310 nM
CC(=O)Nc1ncc(CN2CCCC3(C2)OCc2c3cc[nH]c2=O)s1 (centres unmarked) [Example 87, N-(5-((4-Oxo-4,5-dihydro-3H-spiro[furo[3,4-c]pyridine-1,3′-piperidin]-1′-yl)methyl)thiazol-2-yl)acetamide] | – | – | 54.3 nM | 35 nM
CC(=O)Nc1nc(F)c(CN2CCCC3(C2)OCc2cncnc23)s1 (centres unmarked) [Example 88, N-(5-((5H-Spiro[furo[3,4-d]pyrimidine-7,3′-piperidin]-1′-yl)methyl)-4-fluorothiazol-2-yl)acetamide] | – | – | 90.3 nM | 20.8 nM
CC(=O)Nc1ncc(CN2CCCC3(C2)OCc2cncnc23)s1 (centres unmarked) [Example 89, N-(5-((5H-Spiro[furo[3,4-d]pyrimidine-7,3′-piperidin]-1′-yl)methyl)thiazol-2-yl)acetamide] | – | – | 84.6 nM | 67.9 nM

Further compounds by falling IC50 (OGA (S400 O-GLCNAC)), results first:

efflux ratio at 2 h (P-gp (MDR1)) | RLM % Qh (%) [1] | IC50 (OGA (S400 O-GLCNAC)) | IC50 [2] | SMILES
7.8 | 59% | 40 nM | – | COc1cc2c(cn1)[C@]1(C[C@H](C)N(Cc3sc(NC(C)=O)nc3F)C1)OC2 (single isomer, unassigned) [Example 75-a]
– | – | 17 nM | 4.5 nM | CC(=O)Nc1ncc(CN2CCCC3(C2)OCc2c3ccnc2Cl)s1 (centres unmarked) [Example 85, N-(5-((4-Chloro-3H-spiro[furo[3,4-c]pyridine-1,3′-piperidin]-1′-yl)methyl)thiazol-2-yl)acetamide]
– | – | 15 nM | < 1 nM | CC(=O)Nc1nc(F)c(CN2C[C@@]3(Cc4cc(NC5CC5)ncc4O3)C[C@@H]2C)s1 [Example 31, N-(5-(((2R,5′S)-5-(Cyclopropylamino)-5′-methyl-3H-spiro[furo[2,3-c]pyridine-2,3′-pyrrolidin]-1′-yl)methyl)-4-fluorothiazol-2-yl)acetamide]
– | – | 14 nM | 4.2 nM | CC(=O)Nc1nc(F)c(CN2CC3(C[C@@H]2C)OCc2ccccc23)s1 (stereo partly drawn) [Example 58, N-(4-Fluoro-5-(((5′S)-5′-methyl-3H-spiro[isobenzofuran-1,3′-pyrrolidin]-1′-yl)methyl)thiazol-2-yl)acetamide]
– | – | 13 nM | < 1 nM | CC(=O)Nc1ncc(CN2C[C@@]3(Cc4cc(N5CCN(C)CC5)ncc4O3)C[C@@H]2C)s1 [Example 44, N-(5-(((2R,5′S)-5′-Methyl-5-(4-methylpiperazin-1-yl)-3H-spiro[furo[2,3-c]pyridine-2,3′-pyrrolidin]-1′-yl)methyl)thiazol-2-yl)acetamide]
– | – | 9 nM | < 1 nM | CC(=O)Nc1ncc(CN2C[C@@]3(Cc4cc(N5CCOCC5)ncc4O3)C[C@@H]2C)s1 [Example 37, N-(5-(((2R,5′S)-5′-Methyl-5-morpholino-3H-spiro[furo[2,3-c]pyridine-2,3′-pyrrolidin]-1′-yl)methyl)thiazol-2-yl)acetamide]
– | – | 9 nM | 2.3 nM | COc1cnc2c(n1)CC1(C[C@H](C)N(Cc3sc(NC(C)=O)nc3F)C1)O2 (stereo partly drawn) [Example 50, N-(4-Fluoro-5-(((5′S)-2-methoxy-5′-methyl-7H-spiro[furo[2,3-b]pyrazine-6,3′-pyrrolidin]-1′-yl)methyl)thiazol-2-yl)acetamide]
– | – | 8.5 nM | 2.6 nM | CC(=O)Nc1nc(F)c(CN2CCC[C@@]3(C2)OCc2c3ccnc2Cl)s1 [Example 84-a, (R)—N-(5-((4-chloro-3H-spiro[furo[3,4-c]pyridine-1,3′-piperidin]-1′-yl)methyl)-4-fluorothiazol-2-yl)acetamide]
– | – | 8 nM | < 1 nM | CC(=O)Nc1nc(F)c(CN2C[C@@]3(Cc4cc(NC(C)C)ncc4O3)C[C@@H]2C)s1 [Example 30, N-(4-Fluoro-5-(((2R,5′S)-5-(isopropylamino)-5′-methyl-3H-spiro[furo[2,3-c]pyridine-2,3′-pyrrolidin]-1′-yl)methyl)thiazol-2-yl)acetamide]
– | – | 7 nM | < 1 nM | COCCN(C)c1cc2c(cn1)O[C@]1(C2)C[C@H](C)N(Cc2cnc(NC(C)=O)s2)C1 [Example 32, N-(5-(((2R,5′S)-5-((2-Methoxyethyl)(methyl)amino)-5′-methyl-3H-spiro[furo[2,3-c]pyridine-2,3′-pyrrolidin]-1′-yl)methyl)thiazol-2-yl)acetamide]
– | – | 3 nM | < 1 nM | CCOc1cc2c(cn1)O[C@]1(C2)C[C@H](C)N(Cc2sc(NC(C)=O)nc2F)C1 [Example 46, N-(5-(((2R,5′S)-5-Ethoxy-5′-methyl-3H-spiro[furo[2,3-c]pyridine-2,3′-pyrrolidin]-1′-yl)methyl)-4-fluorothiazol-2-yl)acetamide]
– | – | 1 nM | < 1 nM | CC(=O)Nc1nc(F)c(CN2C[C@@]3(Cc4cc(N(C)C)ncc4O3)C[C@@H]2C)s1 [Example 28, N-(5-(((2R,5′S)-5-(Dimethylamino)-5′-methyl-3H-spiro[furo[2,3-c]pyridine-2,3′-pyrrolidin]-1′-yl)methyl)-4-fluorothiazol-2-yl)acetamide]
– | – | 1 nM | < 1 nM | CC(=O)Nc1nc(F)c(CN2C[C@@]3(Cc4cc(N5CCC5)ncc4O3)C[C@@H]2C)s1 [Example 34, N-(5-(((2R,5′S)-5-(Azetidin-1-yl)-5′-methyl-3H-spiro[furo[2,3-c]pyridine-2,3′-pyrrolidin]-1′-yl)methyl)-4-fluorothiazol-2-yl)acetamide]
